Patent publication US20240217968A1, “PHARMACEUTICAL COMPOUND” (DUKE STREET BIO LIMITED, priority 2021, published 2024)

Each compound was assayed against T1, recombinant human Flag-tagged PARP7 (amino acids 456-657) (Homo sapiens, UniProt Q7Z3E1) (assay: PARP7 biochemical DELFIA assay (auto-MARylation)). Conditions: DELFIA readout, IC50 class.
T1 construct: recombinant human Flag-tagged PARP7 (amino acids 456-657)
T1 sequence (Q7Z3E1 456-657): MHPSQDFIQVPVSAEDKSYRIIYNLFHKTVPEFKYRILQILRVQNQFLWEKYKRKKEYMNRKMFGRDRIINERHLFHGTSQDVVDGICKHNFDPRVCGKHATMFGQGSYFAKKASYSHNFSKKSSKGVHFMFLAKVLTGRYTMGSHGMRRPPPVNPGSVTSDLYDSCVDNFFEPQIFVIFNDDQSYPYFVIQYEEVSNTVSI
In short: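 Readout is DELFIA time-resolved Eu fluorescence (Ex337 nm, Em620 nm) of biotin-ADP-ribose on immobilised Flag-tagged PARP7 456-657. Enzyme (12.5-37.5 nM as added) sat 30 min with compound before biotin-NAD+ (15 μM solution, pH 7.5 HEPES buffer) started 2-3 h room-temperature self-modification, stopped with excess NAD+.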

SMILES | IC50
CC(COCCn1nc(C(F)(F)F)c2c(=O)[nH]ncc21)C(=O)N1CCN(c2ncc(C(F)(F)F)cn2)CC1 (stereo not drawn) [Compound 201] | ≤ 100 nM
CC(COCCn1nc(C(F)(F)F)c2c(=O)[nH]ncc21)C(=O)N1CCN(c2ncc(C(F)(F)F)cn2)CC1 (stereo not drawn) [Compound 202] | ≤ 100 nM
CCn1cc(CCOCCC(=O)N2CCN(c3ncc(C(F)(F)F)cn3)CC2)c2cn[nH]c(=O)c21 [Compound 203, 1-ethyl-3-(2-(3-oxo-3-(4-(5-(trifluoromethyl)pyrimidin-2-yl)piperazin-1-yl)propoxy)ethyl)-1,6-dihydro-7H-pyrrolo[2,3-d]pyridazin-7-one] | ≤ 100 nM
N#Cc1ccc(N2CCN(C(=O)c3cccc(Cc4cccc5c4CCCNC5=O)c3)CC2)nc1 [Compound 204] | 100 to 1000 nM
O=C(CCOCCc1cccc2c(=O)[nH]ncc12)N1CCN(c2nc3ccc(Cl)cc3o2)CC1 [Compound 205] | ≤ 100 nM
CC(COCCc1cccc2c(=O)[nH]ncc12)C(=O)N1CCN(c2ncc(C(F)(F)F)cn2)CC1 (stereo not drawn) [Compound 206] | ≤ 100 nM
O=C(CCOCCc1cccc2c(=O)[nH]ncc12)N1CCN(c2ccc(C(F)(F)F)cc2)C(=O)C1 [Compound 207] | 100 to 1000 nM
N#Cc1ccc2oc(N3CCN(C(=O)CCOCCc4cccc5c(=O)[nH]ncc45)CC3)nc2c1 [Compound 208] | ≤ 100 nM
CCC(OCCCC(=O)N1CCN(c2ncc(C(F)(F)F)cn2)CC1)c1cccc2c(=O)[nH]ncc12 (stereo not drawn) [Compound 209] | ≤ 100 nM
CC(COCCC(=O)N1CCN(c2ccc(Cl)cn2)CC1)n1nc(C(F)(F)F)c2c(=O)[nH]ncc21 (stereo not drawn) [Compound 211] | ≤ 100 nM
CC(COCCC(=O)N1CCN(c2ccc(Cl)cn2)CC1)n1nc(C(F)(F)F)c2c(=O)[nH]ncc21 (stereo not drawn) [Compound 212] | ≤ 100 nM
O=C(CCOCCc1cccc2c(=O)[nH]ncc12)N1CCN(c2nc3ccccc3[nH]2)CC1 [Compound 213] | ≤ 100 nM
Cn1c(N2CCN(C(=O)CCOCCc3cccc4c(=O)[nH]ncc34)CC2)nc2ccccc21 [Compound 214] | ≤ 100 nM
O=C(CCOCCn1nc(C(F)(F)F)c2c(=O)[nH]ncc21)N1CCN(c2nc3cc(F)ccc3o2)CC1 [Compound 215, 1-(2-(3-(4-(5-fluorobenzo[d]oxazol-2-yl)piperazin-1-yl)-3-oxopropoxy)ethyl)-3-(trifluoromethyl)-1,5-dihydro-4H-pyrazolo[3,4-d]pyridazin-4-one] | ≤ 100 nM
O=C1CCc2cnc(N3CCN(C(=O)CCOCCc4cccc5c(=O)[nH]ncc45)CC3)nc2N1 [Compound 216] | ≤ 100 nM
Cc1ccc(CCOCCC(=O)N2CCN(c3ncc(C(F)(F)F)cn3)CC2)c2cn[nH]c(=O)c12 [Compound 217] | ≤ 100 nM
N#Cc1ccc2nc(N3CCN(C(=O)CCOCCn4nc(C(F)(F)F)c5c(=O)[nH]ncc54)CC3)oc2c1 [Compound 218] | ≤ 100 nM
O=C(CCOCCc1cccc2c(=O)[nH]ncc12)N1CCC(c2cc(C(F)(F)F)on2)CC1 [Compound 219] | 100 to 1000 nM
O=C(CCOCCc1cccc2c(=O)[nH]ncc12)N1CCN(c2ncc3c(n2)NCCC3)CC1 [Compound 220] | ≤ 100 nM
O=C(CCOCCc1ccc(Cl)c2c(=O)[nH]ncc12)N1CCN(c2ncc(C(F)(F)F)cn2)CC1 [Compound 226] | ≤ 100 nM

SMILES | IC50
O=C(CCOCCc1c(F)ccc2c(=O)[nH]ncc12)N1CCN(c2ncc(C(F)(F)F)cn2)CC1 [Compound 229] | ≤ 100 nM
Cc1c(C)n(CCOCCC(=O)N2CCN(c3ncc(C(F)(F)F)cn3)CC2)c2cn[nH]c(=O)c12 [Compound 230] | ≤ 100 nM
O=C(CCOCCc1cncc2c(=O)[nH]ncc12)N1CCN(c2ncc(C(F)(F)F)cn2)CC1 [Compound 231] | ≤ 100 nM
O=C(CCOCCn1cc(C(F)(F)F)c2c(=O)[nH]ncc21)N1CCN(c2ncc(Cl)cn2)CC1 [Compound 232] | ≤ 100 nM
O=C(CCOCCc1cccc2c(=O)[nH]ccc12)N1CCN(c2ncc(C(F)(F)F)cn2)CC1 [Compound 233] | ≤ 100 nM
O=C1NCCn2c(CCOCCC(=O)N3CCN(c4ncc(C(F)(F)F)cn4)CC3)nc(C(F)(F)F)c21 [Compound 235, 3-(2-(3-oxo-3-(4-(5-(trifluoromethyl)pyrimidin-2-yl)piperazin-1-yl)propoxy)ethyl)-1-(trifluoromethyl)-6,7-dihydroimidazo[1,5-a]pyrazin-8(5H)-one] | ≤ 100 nM
O=C(CCOCCn1nc(C(F)F)c2c(=O)[nH]ncc21)N1CCN(c2ncc(C(F)(F)F)cn2)CC1 [Compound 236, 3-(difluoromethyl)-1-(2-(3-oxo-3-(4-(5-(trifluoromethyl)pyrimidin-2-yl)piperazin-1-yl)propoxy)ethyl)-1,5-dihydro-4H-pyrazolo[3,4-d]pyridazin-4-one] | ≤ 100 nM
CC1(C)CN(C(=O)CCOCCn2cc(C(F)(F)F)c3c(=O)[nH]ncc32)CCN1c1ccc(C(F)(F)F)cn1 [Compound 237] | ≤ 100 nM
O=C(CCOCCn1cc(C(F)(F)F)c2c(=O)[nH]ncc21)N1CCN(c2ccc(Cl)cn2)CC1 [Compound 238] | ≤ 100 nM
O=C(CCOCCN1C(=O)CCc2c1cn[nH]c2=O)N1CCN(c2ccc(C(F)(F)F)cn2)CC1 [Compound 240, 1-(2-(3-oxo-3-(4-(5-(trifluoromethyl)pyridin-2-yl)piperazin-1-yl)propoxy)ethyl)-4,6-dihydropyrido[2,3-d]pyridazine-2,5(1H,3H)-dione] | ≤ 100 nM
O=C(CCOCCN1C(=O)CCc2c1cn[nH]c2=O)N1CCN(c2ncc(Cl)cn2)CC1 [Compound 242] | ≤ 100 nM
Cc1nn(C(C)COCCC(=O)N2CCN(c3ccc(C#N)cn3)CC2)c2cn[nH]c(=O)c12 (stereo not drawn) [Compound 243] | ≤ 100 nM
Cc1nn(C(C)COCCC(=O)N2CCN(c3ccc(C#N)cn3)CC2)c2cn[nH]c(=O)c12 (stereo not drawn) [Compound 244] | ≤ 100 nM
Cc1nn(C(C)COCCC(=O)N2CCN(c3ncc(C(F)(F)F)cn3)CC2)c2cn[nH]c(=O)c12 (stereo not drawn) [Compound 246] | ≤ 100 nM
O=C(CCOCCn1nc(C(F)(F)F)c2c(=O)[nH]ncc21)N1CCN(c2ncc(C(F)(F)F)s2)CC1 [Compound 247] | ≤ 100 nM
CC(COCCC(=O)N1CCN(c2nc(C#N)cs2)CC1)n1nc(C(F)(F)F)c2c(=O)[nH]ncc21 (stereo not drawn) [Compound 251] | ≤ 100 nM
CC(C)(C)c1cnc(N2CCN(C(=O)CCOCCc3cccc4c(=O)[nH]ncc34)CC2)nc1 [Compound 252] | ≤ 100 nM
Cc1nn(CCOCCC(=O)N2CCN(c3ncc(C(F)(F)F)cn3)C(C)C2)c2cn[nH]c(=O)c12 (stereo not drawn) [Compound 256] | ≤ 100 nM
O=C(CCOCCn1nc(C(F)(F)F)c2c(=O)[nH]ncc21)N1CCN(c2nc3ccccc3[nH]2)CC1 [Compound 257] | ≤ 100 nM
CC(COCCC(=O)N1CCN(c2ncc(C(F)(F)F)s2)CC1)n1nc(C(F)(F)F)c2c(=O)[nH]ncc21 (stereo not drawn) [Compound 259] | ≤ 100 nM

SMILES | IC50
CCc1nc2c(=O)[nH]ncc2n1CCOCCC(=O)N1CCN(c2ncc(C(F)(F)F)cn2)CC1 [Compound 260] | 1000 to 10000 nM
O=C(CCOCCN1C(=O)CCc2c1cn[nH]c2=O)N1CCN(c2ccc(Cl)cn2)CC1 [Compound 261] | ≤ 100 nM
CC(COCCC(=O)N1CCN(c2ncc(C(F)F)cn2)CC1)n1nc(C(F)(F)F)c2c(=O)[nH]ncc21 (stereo not drawn) [Compound 264] | ≤ 100 nM
CC(COCCC(=O)N1CCN(c2ncc(C(F)F)cn2)CC1)n1nc(C(F)(F)F)c2c(=O)[nH]ncc21 (stereo not drawn) [Compound 265] | ≤ 100 nM
CC(COCCC(=O)N1CCN(c2cnc(C(F)(F)F)cn2)CC1)n1nc(C(F)(F)F)c2c(=O)[nH]ncc21 (stereo not drawn) [Compound 267] | ≤ 100 nM
Cc1nn(CCOCCC(=O)N2CCN(c3ncc(C(F)(F)F)cn3)CC2C)c2cn[nH]c(=O)c12 (stereo not drawn) [Compound 268] | ≤ 100 nM
CC(COCCC(=O)N1CCN(c2ccc(C#N)cn2)CC1)n1nc(C(F)(F)F)c2c(=O)[nH]ncc21 (stereo not drawn) [Compound 269] | ≤ 100 nM
N#Cc1ccc(N2CCN(C(=O)CCOCCn3c(C(F)(F)F)nc4c(=O)[nH]ncc43)CC2)nc1 [Compound 272] | 1000 to 10000 nM
CC(COCCC(=O)N1CCN(c2ncc(Cl)cn2)CC1)n1cc(C(F)(F)F)c2c(=O)[nH]ncc21 (stereo not drawn) [Compound 273] | ≤ 100 nM
CC(COCCC(=O)N1CCN(c2ccc(OC(F)F)cn2)CC1)n1nc(C(F)(F)F)c2c(=O)[nH]ncc21 (stereo not drawn) [Compound 275] | ≤ 100 nM
O=C(CCOCCn1nc(C(F)(F)F)c2c(=O)[nH]ncc21)N1CCN(c2nnc(C(F)(F)F)s2)CC1 [Compound 276] | ≤ 100 nM
O=C(CCOCCN1C(=O)CCc2c1cn[nH]c2=O)N1CCN(c2nc3ccccc3o2)CC1 [Compound 277] | ≤ 100 nM
CC(COCCC(=O)N1CCN(c2ccc(C3CC3)cn2)CC1)n1nc(C(F)(F)F)c2c(=O)[nH]ncc21 (stereo not drawn) [Compound 278] | ≤ 100 nM
O=C(CCOCCc1cccc2c(=O)[nH]ncc12)N1CCC(c2cc(C(F)(F)F)[nH]n2)CC1 [Compound 282] | 1000 to 10000 nM
CC(COCCC(=O)N1CCN(c2ncc(C#N)s2)CC1)n1nc(C(F)(F)F)c2c(=O)[nH]ncc21 (stereo not drawn) [Compound 283] | ≤ 100 nM
O=C(CCOCCn1nc(C(F)(F)F)c2c(=O)[nH]ncc21)N1CCN(c2ncc(Cl)cn2)CC1 [Compound 285] | ≤ 100 nM
Cc1cnc(N2CCN(C(=O)CCOCC(C)n3nc(C(F)(F)F)c4c(=O)[nH]ncc43)CC2)nc1 (stereo not drawn) [Compound 286] | ≤ 100 nM
Cc1cnc(N2CCN(C(=O)CCOCC(C)n3nc(C(F)(F)F)c4c(=O)[nH]ncc43)CC2)nc1 (stereo not drawn) [Compound 287] | ≤ 100 nM
CC(COCCC(=O)N1CCN(c2ncc(C3COC3)cn2)CC1)n1nc(C(F)(F)F)c2c(=O)[nH]ncc21 (stereo not drawn) [Compound 288] | ≤ 100 nM
CC(COCCC(=O)N1CCN(c2nnc(C(F)(F)F)s2)CC1)n1nc(C(F)(F)F)c2c(=O)[nH]ncc21 (stereo not drawn) [Compound 292] | ≤ 100 nM
